{"source": "ChEMBL document CHEMBL4342452", "about": "“Water-Soluble Glutamic Acid Derivatives Produced in Culture by Penicillium solitum IS1-A from King George Island, Maritime Antarctica” (J Nat Prod, 2020)", "key": {"HeLa": {"system": "HeLa", "experiment": "Cytotoxicity against human HeLa cells after 24 hrs by tetrazolium dye based assay", "format": "functional, cell-based"}, "Homo sapiens": {"species_on_record": "Homo sapiens", "experiment": "Cytotoxicity against human ACP01 cells after 24 hrs by tetrazolium dye based assay", "format": "functional, cell-based"}, "Klebsiella pneumoniae": {"system": "Klebsiella pneumoniae", "experiment": "Antibacterial activity against Klebsiella pneumoniae ATCC 700603 incubated for 18 hrs by microdilution method", "format": "functional, organism-based"}, "A549": {"system": "A549", "experiment": "Cytotoxicity against human A549 cells after 24 hrs by tetrazolium dye based assay", "format": "functional, cell-based"}, "Pseudomonas aeruginosa": {"system": "Pseudomonas aeruginosa", "experiment": "Antibacterial activity against Pseudomonas aeruginosa ATCC 27853 incubated for 18 hrs by microdilution method", "format": "functional, organism-based"}, "MCF-10A": {"system": "MCF-10A", "experiment": "Cytotoxicity against human MCF10A cells after 24 hrs by tetrazolium dye based assay", "format": "cell-based"}, "MCF7": {"system": "MCF7", "experiment": "Cytotoxicity against human MCF7 cells after 24 hrs by tetrazolium dye based assay", "format": "functional, cell-based"}, "Staphylococcus aureus": {"system": "Staphylococcus aureus", "experiment": "Antibacterial activity against Staphylococcus aureus ATCC 29213 incubated for 18 hrs by microdilution method", "format": "functional, organism-based"}, "Enterococcus faecalis": {"system": "Enterococcus faecalis", "experiment": "Antibacterial activity against Enterococcus faecalis ATCC 29212 incubated for 18 hrs by microdilution method", "format": "functional, organism-based"}}, "note": "Activity calls are given as the source filed them. No cut-off for these calls is given here.", "data": [{"smiles": "C=CC(C)(C)[C@@]1(CCNC(=O)CC[C@H](N)C(=O)O)C(=O)Nc2ccccc21", "values": [{"measurement": "Activity", "setting": "HeLa", "result": "inactive"}, {"measurement": "Activity", "setting": "Homo sapiens", "result": "inactive"}, {"measurement": "Activity", "setting": "Klebsiella pneumoniae", "result": "inactive"}, {"measurement": "Activity", "setting": "A549", "result": "inactive"}, {"measurement": "Activity", "setting": "Pseudomonas aeruginosa", "result": "inactive"}, {"measurement": "Activity", "setting": "MCF-10A", "result": "Non-Toxic"}, {"measurement": "Activity", "setting": "MCF7", "result": "inactive"}, {"measurement": "Activity", "setting": "Staphylococcus aureus", "result": "inactive"}, {"measurement": "Activity", "setting": "Enterococcus faecalis", "result": "inactive"}]}, {"smiles": "C=CC(C)(C)c1[nH]c2ccccc2c(=O)c1CNC(=O)CC[C@H](N)C(=O)O", "values": [{"measurement": "Activity", "setting": "HeLa", "result": "inactive"}, {"measurement": "Activity", "setting": "Homo sapiens", "result": "inactive"}, {"measurement": "Activity", "setting": "Klebsiella pneumoniae", "result": "inactive"}, {"measurement": "Activity", "setting": "A549", "result": "inactive"}, {"measurement": "Activity", "setting": "Pseudomonas aeruginosa", "result": "inactive"}, {"measurement": "Activity", "setting": "MCF-10A", "result": "Non-Toxic"}, {"measurement": "Activity", "setting": "MCF7", "result": "inactive"}, {"measurement": "Activity", "setting": "Staphylococcus aureus", "result": "inactive"}, {"measurement": "Activity", "setting": "Enterococcus faecalis", "result": "inactive"}]}, {"smiles": "C=CC(C)(C)C(=O)Nc1ccccc1C(=O)CCNC(=O)CC[C@H](N)C(=O)O", "values": [{"measurement": "Activity", "setting": "HeLa", "result": "inactive"}, {"measurement": "Activity", "setting": "Homo sapiens", "result": "inactive"}, {"measurement": "Activity", "setting": "Klebsiella pneumoniae", "result": "inactive"}, {"measurement": "Activity", "setting": "A549", "result": "inactive"}, {"measurement": "Activity", "setting": "Pseudomonas aeruginosa", "result": "inactive"}, {"measurement": "Activity", "setting": "MCF-10A", "result": "Non-Toxic"}, {"measurement": "Activity", "setting": "MCF7", "result": "inactive"}, {"measurement": "Activity", "setting": "Staphylococcus aureus", "result": "inactive"}, {"measurement": "Activity", "setting": "Enterococcus faecalis", "result": "inactive"}]}, {"smiles": "C=CC(C)(C)c1[nH]c2ccccc2c1CCNC(=O)CC[C@H](N)C(=O)O", "values": [{"measurement": "Activity", "setting": "HeLa", "result": "inactive"}, {"measurement": "Activity", "setting": "Homo sapiens", "result": "inactive"}, {"measurement": "Activity", "setting": "Klebsiella pneumoniae", "result": "inactive"}, {"measurement": "Activity", "setting": "A549", "result": "inactive"}, {"measurement": "Activity", "setting": "Pseudomonas aeruginosa", "result": "inactive"}, {"measurement": "Activity", "setting": "MCF-10A", "result": "Non-Toxic"}, {"measurement": "Activity", "setting": "MCF7", "result": "inactive"}, {"measurement": "Activity", "setting": "Staphylococcus aureus", "result": "inactive"}, {"measurement": "Activity", "setting": "Enterococcus faecalis", "result": "inactive"}]}, {"smiles": "C=CC(C)(C)[C@H]1Nc2ccccc2C(=O)[C@@H]1CNC(=O)CC[C@H](N)C(=O)O", "values": [{"measurement": "Activity", "setting": "HeLa", "result": "inactive"}, {"measurement": "Activity", "setting": "Homo sapiens", "result": "inactive"}, {"measurement": "Activity", "setting": "Klebsiella pneumoniae", "result": "inactive"}, {"measurement": "Activity", "setting": "A549", "result": "inactive"}, {"measurement": "Activity", "setting": "Pseudomonas aeruginosa", "result": "inactive"}, {"measurement": "Activity", "setting": "MCF-10A", "result": "Non-Toxic"}, {"measurement": "Activity", "setting": "MCF7", "result": "inactive"}, {"measurement": "Activity", "setting": "Staphylococcus aureus", "result": "inactive"}, {"measurement": "Activity", "setting": "Enterococcus faecalis", "result": "inactive"}]}, {"smiles": "C=CC(C)(C)c1[nH]c2ccccc2c1CCNC(=O)CC[C@H](O)C(=O)O", "values": [{"measurement": "Activity", "setting": "HeLa", "result": "inactive"}, {"measurement": "Activity", "setting": "Homo sapiens", "result": "inactive"}, {"measurement": "Activity", "setting": "Klebsiella pneumoniae", "result": "inactive"}, {"measurement": "Activity", "setting": "A549", "result": "inactive"}, {"measurement": "Activity", "setting": "Pseudomonas aeruginosa", "result": "inactive"}, {"measurement": "Activity", "setting": "MCF-10A", "result": "Non-Toxic"}, {"measurement": "Activity", "setting": "MCF7", "result": "inactive"}, {"measurement": "Activity", "setting": "Staphylococcus aureus", "result": "inactive"}, {"measurement": "Activity", "setting": "Enterococcus faecalis", "result": "inactive"}]}]}
